According to ChEMBL document CHEMBL4507291 (2021):

Columns and labels:
[1] = molecular target: Mast/stem cell growth factor receptor Kit (Homo sapiens) (UniProt P10721)
[2] = system: Tyrosine-protein kinase ABL1 (Homo sapiens), P00519 [E255K]
[3] = system: Tyrosine-protein kinase ABL1 (Homo sapiens), P00519 [Q252H]
[4] = molecular target: Macrophage-stimulating protein receptor (Homo sapiens) (UniProt Q04912)
[5] = molecular target: Epidermal growth factor receptor (Homo sapiens) (UniProt P00533)
[6] = system: Mast/stem cell growth factor receptor Kit (Homo sapiens), P10721 [L576P]
[7] = molecular target: Mitotic checkpoint serine/threonine-protein kinase BUB1 (Homo sapiens) (UniProt O43683)
Sequence of Mitotic checkpoint serine/threonine-protein kinase BUB1 (Homo sapiens) (O43683 whole entry, looked up): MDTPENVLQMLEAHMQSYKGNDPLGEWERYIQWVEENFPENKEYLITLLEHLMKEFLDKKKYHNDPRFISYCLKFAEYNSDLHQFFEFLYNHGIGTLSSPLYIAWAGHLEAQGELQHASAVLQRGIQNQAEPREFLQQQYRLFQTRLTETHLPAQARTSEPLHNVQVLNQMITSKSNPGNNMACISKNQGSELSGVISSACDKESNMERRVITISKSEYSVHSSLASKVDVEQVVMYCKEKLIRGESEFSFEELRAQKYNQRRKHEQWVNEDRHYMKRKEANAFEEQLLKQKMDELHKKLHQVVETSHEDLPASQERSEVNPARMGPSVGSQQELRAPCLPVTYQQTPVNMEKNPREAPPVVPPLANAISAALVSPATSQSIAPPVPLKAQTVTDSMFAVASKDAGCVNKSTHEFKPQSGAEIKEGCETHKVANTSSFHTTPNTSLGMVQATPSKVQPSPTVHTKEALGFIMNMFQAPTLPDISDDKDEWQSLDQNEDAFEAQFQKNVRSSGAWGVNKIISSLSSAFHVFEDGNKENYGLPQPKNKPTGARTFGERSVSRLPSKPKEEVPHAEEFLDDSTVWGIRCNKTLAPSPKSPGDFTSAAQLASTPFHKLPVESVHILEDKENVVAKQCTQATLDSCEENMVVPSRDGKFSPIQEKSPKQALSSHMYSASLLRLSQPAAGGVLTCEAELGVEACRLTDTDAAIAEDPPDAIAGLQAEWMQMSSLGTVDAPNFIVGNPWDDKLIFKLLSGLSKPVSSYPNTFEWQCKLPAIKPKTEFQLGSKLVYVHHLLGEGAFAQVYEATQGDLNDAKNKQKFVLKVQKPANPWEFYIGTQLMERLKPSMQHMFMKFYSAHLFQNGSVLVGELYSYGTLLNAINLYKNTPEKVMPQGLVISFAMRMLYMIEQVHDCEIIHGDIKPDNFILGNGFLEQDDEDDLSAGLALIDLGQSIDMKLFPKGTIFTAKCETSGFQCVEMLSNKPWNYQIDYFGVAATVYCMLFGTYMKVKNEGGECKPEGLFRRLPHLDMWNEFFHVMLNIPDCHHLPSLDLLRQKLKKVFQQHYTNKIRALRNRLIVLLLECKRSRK

[8] = molecular target: Dual specificity protein kinase CLK2 (Homo sapiens) (UniProt P49760)
Sequence of Dual specificity protein kinase CLK2 (Homo sapiens) (P49760 whole entry, looked up): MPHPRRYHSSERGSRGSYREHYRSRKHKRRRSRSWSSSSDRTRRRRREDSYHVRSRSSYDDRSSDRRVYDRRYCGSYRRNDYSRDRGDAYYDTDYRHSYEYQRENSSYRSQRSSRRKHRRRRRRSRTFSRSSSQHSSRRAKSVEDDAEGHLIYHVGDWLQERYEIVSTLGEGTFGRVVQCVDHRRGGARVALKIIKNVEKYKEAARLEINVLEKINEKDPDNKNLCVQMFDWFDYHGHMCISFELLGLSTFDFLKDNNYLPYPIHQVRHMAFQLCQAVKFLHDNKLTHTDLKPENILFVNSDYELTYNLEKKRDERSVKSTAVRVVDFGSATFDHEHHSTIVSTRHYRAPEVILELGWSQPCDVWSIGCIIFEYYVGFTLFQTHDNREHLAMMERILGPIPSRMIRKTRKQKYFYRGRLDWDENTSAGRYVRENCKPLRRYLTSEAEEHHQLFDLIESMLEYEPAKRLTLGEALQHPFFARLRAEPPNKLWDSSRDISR

[9] = molecular target: Ribosomal protein S6 kinase alpha-5 (Homo sapiens) (UniProt O75582)
Sequence of Ribosomal protein S6 kinase alpha-5 (Homo sapiens) (O75582 whole entry, looked up): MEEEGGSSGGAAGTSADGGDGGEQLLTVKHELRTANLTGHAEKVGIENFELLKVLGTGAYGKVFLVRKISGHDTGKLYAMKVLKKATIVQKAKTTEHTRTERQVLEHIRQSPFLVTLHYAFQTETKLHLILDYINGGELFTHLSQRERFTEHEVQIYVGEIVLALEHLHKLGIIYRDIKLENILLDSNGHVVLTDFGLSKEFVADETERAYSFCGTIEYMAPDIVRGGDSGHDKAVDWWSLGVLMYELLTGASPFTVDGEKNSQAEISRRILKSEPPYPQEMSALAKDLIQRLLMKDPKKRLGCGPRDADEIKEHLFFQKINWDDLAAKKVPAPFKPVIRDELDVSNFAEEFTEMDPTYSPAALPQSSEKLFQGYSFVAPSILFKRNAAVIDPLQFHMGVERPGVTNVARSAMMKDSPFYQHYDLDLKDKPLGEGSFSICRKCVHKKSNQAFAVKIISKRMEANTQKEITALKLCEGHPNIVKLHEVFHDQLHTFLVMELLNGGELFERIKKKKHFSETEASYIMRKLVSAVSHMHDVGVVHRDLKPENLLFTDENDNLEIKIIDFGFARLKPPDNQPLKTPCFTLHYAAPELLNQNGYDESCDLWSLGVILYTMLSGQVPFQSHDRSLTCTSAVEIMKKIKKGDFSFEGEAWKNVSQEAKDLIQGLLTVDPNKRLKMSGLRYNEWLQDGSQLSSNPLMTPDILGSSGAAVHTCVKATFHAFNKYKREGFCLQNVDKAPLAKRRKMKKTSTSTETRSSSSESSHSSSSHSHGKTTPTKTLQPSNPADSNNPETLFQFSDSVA

[10] = molecular target: Mitogen-activated protein kinase kinase kinase 12 (Homo sapiens) (UniProt Q12852)
Sequence of Mitogen-activated protein kinase kinase kinase 12 (Homo sapiens) (Q12852 whole entry): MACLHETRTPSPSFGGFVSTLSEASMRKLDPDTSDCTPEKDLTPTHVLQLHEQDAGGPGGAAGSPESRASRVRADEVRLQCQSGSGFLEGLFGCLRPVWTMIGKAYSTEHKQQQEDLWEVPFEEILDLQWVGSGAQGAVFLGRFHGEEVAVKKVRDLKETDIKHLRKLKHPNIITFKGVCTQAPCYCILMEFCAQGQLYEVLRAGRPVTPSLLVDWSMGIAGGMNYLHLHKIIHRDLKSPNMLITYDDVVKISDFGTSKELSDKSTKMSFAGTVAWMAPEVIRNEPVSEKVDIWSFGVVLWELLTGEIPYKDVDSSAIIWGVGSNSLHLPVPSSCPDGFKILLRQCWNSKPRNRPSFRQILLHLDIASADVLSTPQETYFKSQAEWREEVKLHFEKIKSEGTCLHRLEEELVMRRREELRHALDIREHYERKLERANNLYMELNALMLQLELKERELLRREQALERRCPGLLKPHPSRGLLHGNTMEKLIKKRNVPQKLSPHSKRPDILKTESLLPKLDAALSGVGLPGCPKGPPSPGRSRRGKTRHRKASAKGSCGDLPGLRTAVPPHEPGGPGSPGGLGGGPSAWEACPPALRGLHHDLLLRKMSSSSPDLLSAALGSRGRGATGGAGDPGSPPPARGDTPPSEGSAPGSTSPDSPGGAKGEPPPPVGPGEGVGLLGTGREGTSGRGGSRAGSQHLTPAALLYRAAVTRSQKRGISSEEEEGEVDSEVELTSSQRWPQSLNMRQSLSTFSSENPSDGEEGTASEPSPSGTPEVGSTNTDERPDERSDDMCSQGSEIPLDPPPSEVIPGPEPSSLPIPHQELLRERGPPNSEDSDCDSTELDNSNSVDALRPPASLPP

[11] = molecular target: T1, Dual specificity mitogen-activated protein kinase kinase 3 (Homo sapiens) (UniProt P46734)
T1 sequence (whole entry): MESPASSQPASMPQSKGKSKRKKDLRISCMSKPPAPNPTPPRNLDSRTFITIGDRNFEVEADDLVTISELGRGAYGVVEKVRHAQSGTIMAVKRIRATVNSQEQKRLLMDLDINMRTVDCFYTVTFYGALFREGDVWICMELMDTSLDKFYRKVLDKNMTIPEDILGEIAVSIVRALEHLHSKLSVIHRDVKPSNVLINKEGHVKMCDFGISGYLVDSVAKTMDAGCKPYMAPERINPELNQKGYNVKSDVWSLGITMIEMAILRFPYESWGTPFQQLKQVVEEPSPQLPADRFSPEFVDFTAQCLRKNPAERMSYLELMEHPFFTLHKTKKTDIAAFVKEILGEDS

[12] = molecular target: Calcium/calmodulin-dependent protein kinase type II subunit alpha (Homo sapiens) (UniProt Q9UQM7)
Sequence of Calcium/calmodulin-dependent protein kinase type II subunit alpha (Homo sapiens) (Q9UQM7 whole entry): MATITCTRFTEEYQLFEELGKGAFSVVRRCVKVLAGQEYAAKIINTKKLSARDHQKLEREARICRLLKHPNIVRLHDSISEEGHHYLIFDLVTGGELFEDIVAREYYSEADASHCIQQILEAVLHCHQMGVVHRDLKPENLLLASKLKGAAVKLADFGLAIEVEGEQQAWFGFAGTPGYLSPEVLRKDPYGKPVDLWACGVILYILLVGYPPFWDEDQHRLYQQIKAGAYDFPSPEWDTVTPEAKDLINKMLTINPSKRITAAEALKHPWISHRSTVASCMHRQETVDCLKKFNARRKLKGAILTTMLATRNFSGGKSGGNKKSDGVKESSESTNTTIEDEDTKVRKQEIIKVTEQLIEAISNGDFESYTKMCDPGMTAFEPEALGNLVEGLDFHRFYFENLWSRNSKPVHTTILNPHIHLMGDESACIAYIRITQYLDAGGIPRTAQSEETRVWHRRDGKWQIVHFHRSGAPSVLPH

[13] = molecular target: T2, Cytoplasmic tyrosine-protein kinase BMX (Homo sapiens) (UniProt P51813)
T2 sequence (whole entry): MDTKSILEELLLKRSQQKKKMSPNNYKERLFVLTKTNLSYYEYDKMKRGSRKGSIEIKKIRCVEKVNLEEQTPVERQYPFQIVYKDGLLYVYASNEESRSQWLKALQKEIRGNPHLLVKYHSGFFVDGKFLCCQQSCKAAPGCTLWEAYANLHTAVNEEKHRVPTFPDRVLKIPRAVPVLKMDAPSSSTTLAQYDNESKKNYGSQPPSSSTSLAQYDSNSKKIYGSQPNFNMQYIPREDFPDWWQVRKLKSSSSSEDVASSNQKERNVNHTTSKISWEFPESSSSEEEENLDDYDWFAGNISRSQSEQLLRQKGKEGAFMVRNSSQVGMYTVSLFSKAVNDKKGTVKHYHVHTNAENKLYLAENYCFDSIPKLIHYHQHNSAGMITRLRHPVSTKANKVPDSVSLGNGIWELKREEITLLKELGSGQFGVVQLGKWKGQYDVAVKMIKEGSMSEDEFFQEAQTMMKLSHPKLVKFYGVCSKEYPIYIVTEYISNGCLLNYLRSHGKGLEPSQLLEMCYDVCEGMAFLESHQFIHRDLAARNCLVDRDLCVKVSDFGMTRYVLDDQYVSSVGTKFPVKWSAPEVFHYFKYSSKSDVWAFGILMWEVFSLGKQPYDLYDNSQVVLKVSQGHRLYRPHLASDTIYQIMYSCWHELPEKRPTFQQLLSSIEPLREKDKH

[14] = molecular target: T3, Serine/threonine-protein kinase Chk1 (Homo sapiens) (UniProt O14757)
T3 sequence (whole entry): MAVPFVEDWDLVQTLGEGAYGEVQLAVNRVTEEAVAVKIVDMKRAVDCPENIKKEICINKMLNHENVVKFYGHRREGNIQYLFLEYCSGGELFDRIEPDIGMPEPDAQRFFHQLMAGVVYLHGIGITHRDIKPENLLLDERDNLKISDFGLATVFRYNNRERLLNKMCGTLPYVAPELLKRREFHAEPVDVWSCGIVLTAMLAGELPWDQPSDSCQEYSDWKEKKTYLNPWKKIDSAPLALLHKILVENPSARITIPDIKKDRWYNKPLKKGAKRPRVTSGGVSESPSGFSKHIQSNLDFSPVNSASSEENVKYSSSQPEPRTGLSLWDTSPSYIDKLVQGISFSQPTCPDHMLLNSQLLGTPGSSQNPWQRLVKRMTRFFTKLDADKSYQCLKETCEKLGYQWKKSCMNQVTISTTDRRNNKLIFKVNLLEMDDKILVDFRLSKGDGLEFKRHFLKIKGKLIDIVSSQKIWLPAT

[15] = molecular target: Serine/threonine-protein kinase tousled-like 1 (Homo sapiens) (UniProt Q9UKI8)
Sequence of Serine/threonine-protein kinase tousled-like 1 (Homo sapiens) (Q9UKI8 whole entry): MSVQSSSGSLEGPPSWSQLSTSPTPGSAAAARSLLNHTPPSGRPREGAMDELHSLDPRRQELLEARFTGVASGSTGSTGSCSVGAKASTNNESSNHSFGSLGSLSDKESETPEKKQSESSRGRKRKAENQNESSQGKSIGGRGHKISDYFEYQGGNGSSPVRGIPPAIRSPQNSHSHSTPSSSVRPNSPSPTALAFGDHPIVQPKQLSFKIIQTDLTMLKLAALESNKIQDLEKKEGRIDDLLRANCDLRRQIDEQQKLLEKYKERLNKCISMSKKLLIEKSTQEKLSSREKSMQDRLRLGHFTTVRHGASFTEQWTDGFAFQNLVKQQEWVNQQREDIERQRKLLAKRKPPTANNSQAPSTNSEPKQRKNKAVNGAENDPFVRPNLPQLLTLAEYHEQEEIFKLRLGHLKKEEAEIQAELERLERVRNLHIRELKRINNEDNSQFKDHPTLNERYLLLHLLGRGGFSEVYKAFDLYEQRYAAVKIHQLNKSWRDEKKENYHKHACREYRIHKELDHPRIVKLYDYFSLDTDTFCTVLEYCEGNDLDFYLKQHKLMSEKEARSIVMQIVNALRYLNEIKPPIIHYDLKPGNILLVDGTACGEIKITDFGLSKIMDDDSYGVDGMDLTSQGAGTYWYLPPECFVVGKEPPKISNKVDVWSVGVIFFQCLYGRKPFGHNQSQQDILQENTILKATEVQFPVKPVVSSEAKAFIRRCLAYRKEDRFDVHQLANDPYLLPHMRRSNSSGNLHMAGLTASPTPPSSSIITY

[16] = molecular target: Tyrosine-protein kinase CSK (Homo sapiens) (UniProt P41240)
Sequence of Tyrosine-protein kinase CSK (Homo sapiens) (P41240 2-450 limits assumed): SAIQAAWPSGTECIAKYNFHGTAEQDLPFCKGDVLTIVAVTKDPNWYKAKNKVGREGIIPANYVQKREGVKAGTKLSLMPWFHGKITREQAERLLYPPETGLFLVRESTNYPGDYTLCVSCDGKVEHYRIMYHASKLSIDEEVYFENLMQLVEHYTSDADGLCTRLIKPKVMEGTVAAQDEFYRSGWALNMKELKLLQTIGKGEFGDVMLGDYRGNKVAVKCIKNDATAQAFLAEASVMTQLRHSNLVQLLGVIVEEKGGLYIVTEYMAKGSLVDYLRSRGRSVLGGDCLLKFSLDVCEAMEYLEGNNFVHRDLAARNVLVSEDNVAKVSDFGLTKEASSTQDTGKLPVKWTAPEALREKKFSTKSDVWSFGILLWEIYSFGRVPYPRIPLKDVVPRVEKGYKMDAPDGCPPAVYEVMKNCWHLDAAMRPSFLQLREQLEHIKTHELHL

[17] = molecular target: T4, 5-hydroxytryptamine receptor 2C (Homo sapiens) (UniProt P28335); settings: Compound concentration 10.0 uM
T4 sequence (whole entry): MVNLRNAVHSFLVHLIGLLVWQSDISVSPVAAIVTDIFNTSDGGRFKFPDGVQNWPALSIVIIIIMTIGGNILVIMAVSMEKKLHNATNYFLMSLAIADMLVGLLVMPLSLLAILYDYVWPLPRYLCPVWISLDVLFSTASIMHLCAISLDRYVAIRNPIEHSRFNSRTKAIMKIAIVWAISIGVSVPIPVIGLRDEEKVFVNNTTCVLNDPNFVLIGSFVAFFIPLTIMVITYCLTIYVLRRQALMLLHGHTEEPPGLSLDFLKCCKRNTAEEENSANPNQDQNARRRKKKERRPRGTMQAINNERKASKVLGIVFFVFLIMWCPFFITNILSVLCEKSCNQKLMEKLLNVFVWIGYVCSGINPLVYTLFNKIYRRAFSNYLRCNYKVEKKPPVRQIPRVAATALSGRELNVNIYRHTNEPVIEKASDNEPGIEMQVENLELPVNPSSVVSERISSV

[18] = Compound concentration 1000.0 nM
[19] = Compound concentration 100.0 nM

C[C@@H]1CN(c2cc(-c3nn(C)c4ccc(OC5(C)CC5)cc34)ncn2)C[C@H](C)O1 [MLi-2-NC]
inactive: residual activity [1, 18] 97% | residual activity [2, 18] 79% | residual activity [3, 18] 93% | residual activity [4, 18] 100% | residual activity [5, 18] 97% | residual activity [6, 18] 100% | residual activity [7, 18] 89% | residual activity [8, 18] 81% | residual activity [9, 18] 100% | residual activity [10, 18] 61% | residual activity [11, 18] 70% | residual activity [12, 18] 98% | residual activity [13, 18] 93% | residual activity [14, 18] 57% | residual activity [15, 18] 100% | residual activity [16, 18] 100% | inhibition [17] 18.7%

C[C@@H]1CN(c2cc(-c3n[nH]c4ccc(OC5(C)CC5)cc34)ncn2)C[C@H](C)O1 [MLi-2]
inactive: residual activity [1, 19] 70% | residual activity [2, 19] 66% | residual activity [3, 19] 100% | residual activity [4, 19] 100% | residual activity [5, 19] 76% | residual activity [6, 19] 100% | residual activity [7, 19] 84% | residual activity [8, 19] 85% | residual activity [9, 19] 97% | residual activity [10, 19] 82% | residual activity [11, 19] 71% | residual activity [12, 19] 100% | residual activity [13, 19] 80% | residual activity [14, 19] 90% | residual activity [15, 19] 94% | residual activity [16, 19] 100% | inhibition [17] 7.65%
